In patent US11207312B2, “Metallo-beta-lactamase inhibitors and methods of use thereof” (priority 2017, dated 2021):
pIC50: −log10 of the molar value.

Columns and labels:
[1] = system: Escherichia coli expressing NDM-1 (CLB30016); assay type: cell-based; conditions: with imipenem 1 μg/ml; 95% inhibition of bacterial growth
In short: (§1)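 Colonies from sheep-blood agar plates are resuspended in saline, then diluted 1:100 in 1.1× CAMHB. Bacteria receive imipenem (1 μg/ml) and test compound, then incubate 22–24 h at 35 °C. Potentiation is reported as MITC95 from absorbance.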

[2] = system: Serratia marcescens expressing IMP-1 (CL5741); assay type: cell-based; conditions: with imipenem 1 μg/ml; 95% inhibition of bacterial growth
In short: as §1

[3] = system: Klebsiella pneumoniae expressing VIM-1 (IHMA599644); assay type: cell-based; conditions: with imipenem 1 μg/ml; 95% inhibition of bacterial growth
In short: as §1

[4] = system: P. aeruginosa MB9799 (efflux-, IMP-1 plasmid); assay type: cell-based, Pseudomonas aeruginosa; conditions: efflux − (MB9799) strain; imipenem at 2 μg/mL; in the presence of a class A, C, D serine β-lactamase inhibitor closely related to relebactam
In short: (§2)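 PAO1-derived isogenic pair (oprD+, inducible AmpC), efflux+ MB5919 or efflux− MB5890 parent, carrying an electroporated IMP-1 plasmid from a clinical isolate. Microbroth MIC with fixed imipenem and/or ceftazidime (usually CLSI breakpoint) plus fixed class A/C inhibitor; MBL inhibitor serially titrated, concentration restoring susceptibility recorded.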

[5] = system: P. aeruginosa MB9798 (efflux+, IMP-1 plasmid); conditions: for MB9798 MITC95 P. aeruginosa uM Efflux WT: efflux + (MB9798) strain, imipenem at 2 μg/mL, in the presence of a class A, C, D serine β-lactamase inhibitor closely related to relebactam; for Efflux ratio: fold difference between efflux+ (MB9798) and efflux− (MB9799) strains
In short: as §2

VIM-2 = VIM-2 (Escherichia coli, UniProt Q5U7L7); experiment: biochemical; conditions: CCF2-FA fluorescence assay; read-out: VIM2 IC50
IMP-1 = IMP-1 (Serratia marcescens, UniProt P52699); experiment: biochemical; conditions: CCF2-FA fluorescence assay, 2 hours at 25° C.; read-out: IMP1 IC50
In short: (§3)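 IC50s come from 4-parameter fits of inhibition versus inhibitor concentration, tested from 20 μM down to 0.00063 μM. Enzyme, CCF2-FA (1.25 μM) and inhibitor react 2 h at 25° C, pH 7, with 10 μM ZnSO4 and 0.005% Tween-20.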

VIM-1 = VIM-1 (Pseudomonas aeruginosa (strain ATCC 15692 / DSM 22644 / CIP 104116 / JCM 14847 / LMG 12228 / 1C / PRS 101 / PAO1), UniProt A0A0F7KYQ8); experiment: biochemical; conditions: CCF2-FA fluorescence assay, 2 hours at 25° C.; read-out: VIM1 IC50
In short: as §3

NDM-1 = NDM-1 (Klebsiella pneumoniae, UniProt C7C422); experiment: biochemical; assay type: biochemical; conditions: CCF2-FA fluorescence assay, 2 hours at 25° C.
In short: as §3

Chain of IMP-1 (P52699 whole entry, looked up, species assumed): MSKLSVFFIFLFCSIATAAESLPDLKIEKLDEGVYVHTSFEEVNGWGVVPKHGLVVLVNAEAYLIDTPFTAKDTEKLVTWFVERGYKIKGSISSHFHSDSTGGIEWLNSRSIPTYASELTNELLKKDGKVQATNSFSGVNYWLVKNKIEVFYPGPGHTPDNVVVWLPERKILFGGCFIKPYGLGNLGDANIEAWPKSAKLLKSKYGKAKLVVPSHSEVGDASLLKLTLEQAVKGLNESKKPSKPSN
Chain of NDM-1 (C7C422 whole entry, looked up, species assumed): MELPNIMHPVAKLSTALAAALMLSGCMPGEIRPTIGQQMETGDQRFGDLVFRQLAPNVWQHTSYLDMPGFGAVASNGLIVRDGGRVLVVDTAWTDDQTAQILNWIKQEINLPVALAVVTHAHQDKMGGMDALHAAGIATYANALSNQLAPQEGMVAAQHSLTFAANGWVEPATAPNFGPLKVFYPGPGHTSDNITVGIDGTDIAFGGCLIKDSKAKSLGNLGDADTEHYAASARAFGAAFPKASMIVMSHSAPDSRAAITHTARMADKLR

Structure (SMILES)	CLB30016 E. coli MITC95 NDM [1] [µM]	CL5741 S. marcescens MITC95 IMP [2] [µM]	IHMA599644 K. pneumoniae MITC95 VIM [3] [µM]	MB9799 MITC95 P. aeruginosa uM Efflux Mutant [4] [µM]	MB9798 MITC95 P. aeruginosa uM Efflux WT [5] [µM]	Efflux ratio [5]	pIC50 (VIM-2)	pIC50 (IMP-1)	pIC50 (VIM-1)	pIC50 (NDM-1)
NC[C@@H](O)CNS(=O)(=O)c1ccc(N2CCC3(CCNC3)C2)c(-c2nn[nH]n2)c1S(N)(=O)=O (stereo partly drawn) [Example 133, di-trifluoroacetic acid]	0.78	1.56	0.78	1.56	3.13	2.00	7.24	7.62	8.68	7.90
Cl.Cl.NCC1CCN(c2ccc(S(=O)(=O)N[C@@H]3CCNC3)c(S(N)(=O)=O)c2-c2nn[nH]n2)CC1 [Example 135, (R)-4-(4-(aminomethyl)piperidin-1-yl)-N1-(pyrrolidin-3-yl)-3-(2H-tetrazol-5-yl)benzene-1,2-disulfonamide dihydrochloride]	0.59	0.78	1.17	0.39	0.59	1.50	8.52	8.46	9.80	8.95
CN(CCO)CCN(C)c1ccc(S(=O)(=O)NC[C@H](O)CN)c(S(N)(=O)=O)c1-c1nn[nH]n1 [Example 136, (R)—N1-(3-amino-2-hydroxypropyl)-4-((2-((2-hydroxyethyl)(methyl)amino)ethyl)(methyl)amino)-3-(2H-tetrazol-5-yl)benzene-1,2-disulfonamide]	3.13	12.50	1.56	12.50	50.00	4.00	7.56	6.70	7.85	6.70
N.NC[C@@H](O)CNS(=O)(=O)c1ccc(N2CCN(CC(=O)O)CC2)c(-c2nnn[nH]2)c1S(N)(=O)=O [Example 137, ammonium (R)-2-(4-(4-(N-(3-amino-2-hydroxypropyl)sulfamoyl)-3-sulfamoyl-2-(1H-tetrazol-5-yl)phenyl)piperazin-1-yl)acetate]	0.78	1.56	6.25	3.13	6.25	2.00	7.81	8.30	7.79	8.46
CC1(CN)CCN(c2ccc(S(=O)(=O)NC[C@H](O)CN)c(S(N)(=O)=O)c2-c2nn[nH]n2)CC1 [Example 138, (R)-N1-(3-amino-2-hydroxypropyl)-4-(4-(aminomethyl)-4-methylpiperidin-1-yl)-3-(2H-tetrazol-5-yl)benzene-1,2-disulfonamide]	1.56	1.56	1.56	0.78	1.56	2.00	7.99	8.16	9.15	8.61
NCC1CCCN(c2ccc(S(=O)(=O)NC[C@H](O)CN)c(S(N)(=O)=O)c2-c2nn[nH]n2)CC1 (stereo partly drawn) [Example 139, N1-((R)-3-amino-2-hydroxypropyl)-4-(4-(aminomethyl)azepan-1-yl)-3-(2H-tetrazol-5-yl)benzene-1,2-disulfonamide bis(2,2,2-trifluoroacetate)]	0.78	0.78	1.56	0.78	1.56	2.00	8.34	7.73	9.41	7.74
NCCC1CCCN(c2ccc(S(=O)(=O)NC[C@H](O)CN)c(S(N)(=O)=O)c2-c2nn[nH]n2)CC1 (stereo partly drawn) [Example 140, N1-((R)-3-amino-2-hydroxypropyl)-4-(4-(2-aminoethyl)azepan-1-yl)-3-(2H-tetrazol-5-yl)benzene-1,2-disulfonamide bis(2,2,2-trifluoroacetate)]	1.56	0.78	0.78	0.78	1.56	2.00	8.73	8.20	10.00	8.43
NC[C@@H](O)CNS(=O)(=O)c1ccc(N2CCC3CNCC3C2)c(-c2nnn[nH]2)c1S(N)(=O)=O (stereo partly drawn) [Example 141, N1-((R)-3-amino-2-hydroxypropyl)-4-(hexahydro-1H-pyrrolo[3,4-c]pyridin-5(6H)-yl)-3-(1H-tetrazol-5-yl)benzene-1,2-disulfonamide]	1.56	1.56	1.56	1.56	6.25	4.00	7.80	7.92	9.37	7.80
NC[C@@H](O)CNS(=O)(=O)c1ccc(N2CCC(NCCO)CC2)c(-c2nn[nH]n2)c1S(N)(=O)=O [Example 142, (R)-N1-(3-amino-2-hydroxypropyl)-4-(4-((2-hydroxyethyl)amino)piperidin-1-yl)-3-(2H-tetrazol-5-yl)benzene-1,2-disulfonamide bis(2,2,2-trifluoroacetate)]	0.39	0.78	1.56	0.78	0.78	1.00	8.03	8.23	9.38	8.12
NC[C@@H](O)CNS(=O)(=O)c1ccc(N[C@H]2C[C@@H](N)C2)c(-c2nnn[nH]2)c1S(N)(=O)=O [Example 143, N1-((R)-3-amino-2-hydroxypropyl)-4-(((1s,3S)-3-aminocyclobutyl)amino)-3-(1H-tetrazol-5-yl)benzene-1,2-disulfonamide]	1.56	1.56	12.50	3.13	6.25	2.00	6.70	7.15	7.00	6.95
NCCC1CN(c2ccc(S(=O)(=O)NC[C@H](O)CN)c(S(N)(=O)=O)c2-c2nn[nH]n2)C1 [Example 144, (R)-N1-(3-amino-2-hydroxypropyl)-4-(3-(2-aminoethyl)azetidin-1-yl)-3-(2H-tetrazol-5-yl)benzene-1,2-disulfonamide]	3.13	6.25	3.13	3.13	12.50	4.00	6.70	7.05	8.37	6.95
NCCC(=O)N1CCN(c2ccc(S(=O)(=O)NC[C@H](O)CN)c(S(N)(=O)=O)c2-c2nn[nH]n2)CC1 [Example 145, (R)—N1-(3-amino-2-hydroxypropyl)-4-(4-(3-aminopropanoyl)piperazin-1-yl)-3-(2H-tetrazol-5-yl)benzene-1,2-disulfonamide]	0.39	0.78	1.56	0.78	0.78	1.00	8.08	8.33	9.34	8.77
